Experimental data: ChEMBL document CHEMBL1221210, “A Cdc7 kinase inhibitor restricts initiation of DNA replication and has antitumor activity” (Nat Chem Biol, 2008); call rule not given here

Columns and labels:
U2OS [1] = assay: Induction of cell cycle arrest in human U2OS cells expressing p53 gene assessed as accumulation at subG1 phase at 10 uM after 24 hrs by FACS analysis; type: functional
HeLa [2] = assay: Inhibition of DNA replication in human HeLa cells assessed as increase in replication fork speed per min at 20 uM after 6 hrs by immunofluorescence assay; type: functional
[3] = Induction of cell cycle arrest in p53 deficient human A2780/E6 cells assessed as residual DNA synthesis at 5 uM after 24 hrs by FACS analysis; type: functional
U2OS [4] = assay: Induction of cell cycle arrest in human U2OS cells expressing p53 gene assessed as accumulation at subG1 phase at 5 uM after 24hrs by FACS analysis; type: functional
HeLa [5] = assay: Induction of cell cycle arrest in p53 deficient human HeLa cells assessed as accumulation at subG1 phase at 10 uM after 24hrs by FACS analysis; type: functional
HCT-15 [6] = assay: Induction of cell cycle arrest in human HCT15 cells expressing p53 gene assessed as residual DNA synthesis at 5 uM after 24 hrs by FACS analysis; type: functional
K562 [7] = assay: Antiproliferative activity against p53 deficient human K562 cells after 72 hrs; type: functional, cell-based; conditions: K562, 72 h
[8] = Clearance in SCID mouse carrying human HL60 cells at 20 mg/kg or 30 mg/kg, iv after 10 hrs; type: ADME, organism-based, HL-60; conditions: in vivo
SF-539 [9] = assay: Antiproliferative activity against human SF539 cells expressing p53 gene after 72 hrs by proliferative assay; type: functional, cell-based; conditions: SF-539, 72 h
HeLa [10] = assay: Induction of cell cycle arrest in p53 deficient human HeLa cells assessed as assessed as accumulation at subG1 phase at 5 uM after 24hrs by FACS analysis; type: functional
Jurkat [11] = assay: Induction of cell cycle arrest in p53 deficient human Jurkat cells assessed as accumulation at subG1 phase at 10 uM after 24hrs by FACS analysis; type: functional
HeLa [12] = assay: Inhibition of DNA replication in human HeLa cells assessed as increase in replication fork speed per min at 20 uM after 2 hrs by immunofluorescence assay; type: functional
NHDF [13] = assay: Induction of cell cycle arrest in NHDF expressing p53 gene assessed as accumulation at subG1 phase at 5 uM after 24hrs by FACS analysis; type: cell-based; conditions: human
K562 [14] = assay: Induction of cell cycle arrest in p53 deficient human K562 cells assessed as residual DNA synthesis at 10 uM after 24 hrs by FACS analysis; type: functional
[15] = Induction of cell cycle arrest in p53 deficient human HCT116-E6 cells assessed as accumulation at subG1 phase at 5 uM after 24hrs by FACS analysis; type: functional
PC-3 [16] = assay: Induction of cell cycle arrest in human PC3 cells expressing p53 gene assessed as residual DNA synthesis at 10 uM after 24 hrs by FACS analysis; type: functional
HCT-15 [17] = assay: Induction of cell cycle arrest in human HCT15 cells expressing p53 gene assessed as accumulation at subG1 phase at 5 uM after 24hrs by FACS analysis; type: functional
[18] = Induction of cell cycle arrest in p53 deficient human A2780/E6 cells assessed as accumulation at subG1 phase at 10 uM after 24hrs by FACS analysis; type: functional
[19] = target: Inhibitor of nuclear factor kappa-B kinase subunit beta (Homo sapiens, UniProt O14920); assay: Inhibition of IKK2
HeLa [20] = assay: Inhibition of DNA replication in human HeLa cells assessed as interorigin distance between homogenous DNA fibers at 5 uM after 6 hrs by immunofluorescence assay; type: functional
PC-3 [21] = assay: Induction of cell cycle arrest in human PC3 cells expressing p53 gene assessed as accumulation at subG1 phase at 10 uM after 24 hrs by FACS analysis; type: functional
HeLa [22] = assay: Inhibition of DNA replication in human HeLa cells assessed as interorigin distance between homogenous DNA fibers at 20 uM after 2 hrs by immunofluorescence assay; type: functional
PC-3 [23] = assay: Antiproliferative activity against human PC3 cells expressing p53 gene after 72 hrs by proliferative assay; type: functional, cell-based; conditions: PC-3, 72 h
SW480 [24] = assay: Induction of cell cycle arrest in p53 deficient human SW480 cells assessed as accumulation at subG1 phase at 10 uM after 24hrs by FACS analysis; type: functional
SF-539 [25] = assay: Induction of cell cycle arrest in human SF539 cells expressing p53 gene assessed as residual DNA synthesis at 5 uM after 24 hrs by FACS analysis; type: functional
MCF7 = assay: Induction of cell cycle arrest in human MCF7 cells expressing p53 gene assessed as residual DNA synthesis at 5 uM after 24 hrs by FACS analysis; type: functional
NHDF [26] = assay: Induction of cell cycle arrest in NHDF expressing p53 gene assessed as accumulation at subG1 phase at 10 uM after 24 hrs by FACS analysis; type: cell-based; conditions: human
[27] = target: Serine/threonine-protein kinase NIM1 (Homo sapiens, UniProt Q8IY84); assay: Inhibition of NIM1
Jurkat [28] = assay: Induction of cell cycle arrest in p53 deficient human Jurkat cells assessed as residual DNA synthesis at 5 uM after 24 hrs by FACS analysis; type: functional
SW480 [29] = assay: Antiproliferative activity against p53 deficient human SW480 cells after 72 hrs by proliferative assay; type: functional, cell-based; conditions: SW480, 72 h
HCT-116 [30] = assay: Antiproliferative activity against human HCT116 cells expressing p53 gene after 72 hrs by proliferative assay; type: functional, cell-based; conditions: HCT-116, 72 h
[31] = target: Mitogen-activated protein kinase 11 (Homo sapiens, UniProt Q15759); assay: Inhibition of P38beta
NHDF [32] = assay: Induction of cell cycle arrest in NHDF expressing p53 gene assessed as accumulation at subG1 phase at 0.1 uM after 24hrs by FACS analysis; type: cell-based; conditions: human
Jurkat [33] = assay: Antiproliferative activity against p53 deficient human Jurkat cells after 72 hrs by proliferative assay; type: functional, cell-based
SW480 [34] = assay: Induction of cell cycle arrest in p53 deficient human SW480 cells assessed as residual DNA synthesis at 5 uM after 24 hrs by FACS analysis; type: functional
HeLa [35] = assay: Inhibition of DNA replication in human HeLa cells assessed as increase in replication fork speed per min at 5 uM after 6 hrs by immunofluorescence assay; type: functional
Jurkat [36] = assay: Induction of cell cycle arrest in p53 deficient human Jurkat cells assessed as accumulation at subG1 phase at 5 uM after 24hrs by FACS analysis; type: functional
HeLa [37] = assay: Inhibition of DNA replication in human HeLa cells assessed as interorigin distance between homogenous DNA fibers at 20 uM after 4 hrs by immunofluorescence assay; type: functional
HCT-116 [38] = assay: Induction of cell cycle arrest in human HCT116 cells expressing p53 gene assessed as accumulation at subG1 phase at 5 uM after 24hrs by FACS analysis; type: functional
Rattus norvegicus = assay: AUC in rat carrying DMBA-induced mammary carcinoma at 10 mg/kg, iv after 10 hrs; type: ADME, organism-based, Plasma; parameters: time < 10 hr, dose 10 mg/kg, route intravenous; conditions: in vivo

Sequence of Mitogen-activated protein kinase 11 (Q15759 whole entry): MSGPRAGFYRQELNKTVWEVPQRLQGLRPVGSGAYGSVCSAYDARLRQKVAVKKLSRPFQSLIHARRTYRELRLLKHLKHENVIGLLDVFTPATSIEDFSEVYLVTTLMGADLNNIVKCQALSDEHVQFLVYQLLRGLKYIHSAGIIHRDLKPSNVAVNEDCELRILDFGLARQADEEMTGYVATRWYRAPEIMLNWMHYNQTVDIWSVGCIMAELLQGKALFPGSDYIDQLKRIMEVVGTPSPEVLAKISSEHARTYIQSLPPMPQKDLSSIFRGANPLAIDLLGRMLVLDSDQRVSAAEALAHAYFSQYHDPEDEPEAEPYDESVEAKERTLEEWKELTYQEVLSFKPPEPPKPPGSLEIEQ
Sequence of Serine/threonine-protein kinase NIM1 (Q8IY84 whole entry): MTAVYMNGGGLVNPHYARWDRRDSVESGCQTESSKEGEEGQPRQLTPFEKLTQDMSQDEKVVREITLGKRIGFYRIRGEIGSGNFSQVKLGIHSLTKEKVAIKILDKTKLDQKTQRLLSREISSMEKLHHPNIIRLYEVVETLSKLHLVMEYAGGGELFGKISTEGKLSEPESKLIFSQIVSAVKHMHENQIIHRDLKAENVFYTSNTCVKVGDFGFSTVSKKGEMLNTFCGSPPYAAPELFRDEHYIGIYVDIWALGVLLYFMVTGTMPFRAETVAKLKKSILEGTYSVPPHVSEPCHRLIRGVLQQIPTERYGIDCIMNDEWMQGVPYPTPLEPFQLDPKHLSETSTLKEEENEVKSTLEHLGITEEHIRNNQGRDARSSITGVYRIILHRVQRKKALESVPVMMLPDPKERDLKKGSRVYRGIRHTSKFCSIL
Sequence of Inhibitor of nuclear factor kappa-B kinase subunit beta (O14920 whole entry): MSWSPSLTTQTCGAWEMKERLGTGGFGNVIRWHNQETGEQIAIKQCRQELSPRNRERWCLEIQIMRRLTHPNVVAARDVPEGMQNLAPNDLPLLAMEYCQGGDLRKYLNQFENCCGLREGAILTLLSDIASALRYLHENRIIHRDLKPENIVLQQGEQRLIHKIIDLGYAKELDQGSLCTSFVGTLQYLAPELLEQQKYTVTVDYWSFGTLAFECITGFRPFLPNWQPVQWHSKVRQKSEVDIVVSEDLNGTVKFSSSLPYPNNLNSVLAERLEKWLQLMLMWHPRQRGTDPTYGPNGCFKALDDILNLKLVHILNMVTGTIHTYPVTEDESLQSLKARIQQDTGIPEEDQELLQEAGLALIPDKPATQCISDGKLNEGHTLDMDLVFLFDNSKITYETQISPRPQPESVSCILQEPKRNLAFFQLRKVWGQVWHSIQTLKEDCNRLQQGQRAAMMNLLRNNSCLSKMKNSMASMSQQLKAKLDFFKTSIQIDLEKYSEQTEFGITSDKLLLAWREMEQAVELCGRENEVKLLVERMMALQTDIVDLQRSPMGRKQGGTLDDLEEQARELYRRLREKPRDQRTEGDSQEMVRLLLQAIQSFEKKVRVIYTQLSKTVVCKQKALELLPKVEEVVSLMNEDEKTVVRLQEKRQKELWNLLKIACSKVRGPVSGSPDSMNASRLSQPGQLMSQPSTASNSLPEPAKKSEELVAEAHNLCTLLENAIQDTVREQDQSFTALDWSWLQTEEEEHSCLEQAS

**Q.** What does the source list for `O=C1NCCc2[nH]c(-c3ccncc3)cc21`?
**A.** Activity (U2OS [1]): 3%; Activity (HeLa [2]): 2.28 kilobase; Activity [3]: <3%; Activity (U2OS [4]): 3%; Activity (HeLa [5]): 10%; Activity (HCT-15 [6]): <3%; IC50 (K562 [7]): 5.87 µM; clearance [8]: 30 mL/min/kg; IC50 (SF-539 [9]): 2.34 µM; Activity (HeLa [10]): 10%; Activity (Jurkat [11]): >20%; Activity (HeLa [12]): 1.92 kilobase; Activity (NHDF [13]): < 3%; Activity (K562 [14]): 10%; Activity [15]: 3%; Activity (PC-3 [16]): <3%; Activity (HCT-15 [17]): 3%; Activity [18]: >20%; IC50 [19]: > 10 µM; Activity (HeLa [20]): 293 kilobase; Activity (PC-3 [21]): 3%; Activity (HeLa [22]): 226 kilobase; IC50 (PC-3 [23]): 4.59 µM; Activity (SW480 [24]): >20%; Activity (SF-539 [25]): 3%; Activity (MCF7): <3%; Activity (NHDF [26]): < 3%; IC50 [27]: > 10 µM; Activity (Jurkat [28]): <3%; IC50 (SW480 [29]): 2.67 µM; IC50 (HCT-116 [30]): 0.97 µM; IC50 [31]: > 10 µM; Activity (NHDF [32]): Active; IC50 (Jurkat [33]): 3.2 µM; Activity (SW480 [34]): <3%; Activity (HeLa [35]): 2.14 kilobase; Activity (Jurkat [36]): >20%; Activity (HeLa [37]): 287 kilobase; Activity (HCT-116 [38]): 3%; AUC (Rattus norvegicus): 21 µM·h
